Experimental data taken from patent US20200305426A1, “BOOSTERS FOR ANTIMICROBIAL, PRESERVATIVE AND BIOCIDAL APPLICATIONS” (EMERALD KALAMA CHEMICAL, LLC, priority 2017, published 2020).

Key:
[1] = test system: Pseudomonas aeruginosa; conditions: tryptic soy broth pH 6.5; with 0.25 wt. % sodium benzoate and 0.25 wt. % benzyl alcohol; two days
From the text: (§1) Challenge Testing Methodology—Experimental—Several industry standard testing methodologies exist for evaluating antimicrobial efficacy. Two common examples of such standards include United States Pharmacopeia (USP 51) and European Pharmacopeia (EP) testing methodology. These methodologies are particularly useful in that they have criteria and methodologies distinguishing between oral products, topical products and pharmaceutical products, among others.
In conducting the testing, the compound or product to be evaluated is separated out into individual containers, each being challenged with one of the method-specified microorganisms (S. aureus—ATCC 6538 USP51/EP, E. coli—ATCC 8739 EP, P. aeruginosa—ATCC 9027 USP51/EP, C. albicans—ATCC 10231 USP51/EP, and A. brasiliensis—ATCC 16404 USP51/EP) at a concentration of >1×10^5 CFU/g or ml. The initial concentration of each microorganism is determined by inoculating a control substance and using standard dilution and plating techniques. […] The inoculated broth is held at room temperature and is evaluated at specific intervals. USP-51 evaluates at the 14-day and 28-day intervals. EP evaluates results at 2-day, 7-day, 14-day, and 28-day. […] After a period of incubation (48 hours for bacteria, up to 5 days for yeast and mold) surviving microorganisms are counted, and the log reduction of each microorganism at each interval is reported. […]

[2] = test system: S. aureus, E. coli, P. aeruginosa, C. albicans, and A. brasiliensis; test: Challenge test in skin lotion formulation, European Pharmacopeia criteria; format: cell-based; conditions: for European Pharmacopeia 14-day criteria / European Pharmacopeia two-day criteria: skin lotion; for European Pharmacopeia 14-day criteria: 0.25 wt. % booster with 0.5 wt. % sodium benzoate and 0.66 wt. % benzyl alcohol; for European Pharmacopeia two-day criteria: 0.25 wt. % booster with 0.5 wt. % sodium benzoate and 1 wt. % benzyl alcohol; for European Pharmacopeia two-day and 14-day criteria: skin lotion pH 6.5
Description: (§2) For the European Pharmacopeia, a “pass” test for efficacy is a two-log reduction for bacteria after two days, a three-log reduction in bacteria after […], a two-log reduction in mold and yeast at 14 days and no increase at 28 days.
Skin Lotion Formulation Experimental—An exemplary, model skin lotion having a pH of 6.5 as set forth below in Table 1 was prepared for testing. The invention is not limited to use in this specific lotion but was used to illustrate the advantages of the invention.
In this example, 3-phenyl propanol was used to enhance the performance of low concentrations of sodium benzoate and benzyl alcohol. This example evaluated boosting performance of 3-phenyl propanol in a skin lotion formulation having a pH of 6.5, the ingredients of which are listed in Table 1. Each formulation contained 0.25 wt. % of sodium benzoate and 0.25 wt. % of benzyl alcohol.
(§3) In this example, EDTA was used to enhance the performance of sodium benzoate and benzyl alcohol in a skin lotion formulation at pH, the ingredients of which are set forth in Table 1. Each formulation contained 0.5 wt. % of sodium benzoate and 0.25 wt. % of EDTA with benzyl alcohol varying up to 1 wt. %. The control was comprised of 0.5 wt. % sodium benzoate and 1 wt. % benzyl alcohol without EDTA.
as §3, with “example, sodium gluconate” for “example, EDTA”, “at pH 6.5,” for “at pH,”, “of sodium gluconate,” for “of EDTA”, “control” for “control was”, “comprised” for “comprised of”, “without sodium gluconate.” for “without EDTA.”
In this example, caprylyl glycol was used to enhance the performance of sodium benzoate and benzyl alcohol in a skin lotion formulation at pH 6.5, the ingredients of which are set forth in Table 1. FIGS. 27 and 28 reflect log reduction data of colony forming units (CFU) of microbe strains exposed to sodium benzoate, benzyl alcohol, and caprylyl glycol concentrations in skin lotion media after two and fourteen days. […] A control was utilized comprising 0.5 wt. % sodium benzoate and 1 wt. % benzyl alcohol without caprylyl glycol.

[3] = test system: A. brasiliensis, C. albicans, E. coli, P. aeruginosa, and S. aureus; test: Challenge test (USP-51 / European Pharmacopeia) in tryptic soy broth, log reduction of CFU; format: cell-based
[4] = test system: K. aerogenes (ATCC 13048) and P. aeruginosa (ATCC 9027); test: Challenge test in tryptic soy broth at pH 9.0, log reduction of CFU; format: cell-based; conditions: 2.5 wt. % alone; tryptic soy broth pH 9.0; up to one week
From the text: FIG. 29 reflects log reduction data for colony forming units (CFU) of microbe strains in tryptic soy broth growth media at pH 9.0 up to 28 days.
FIG. 30 reflects log reduction data for colony forming units (CFU) of microbe strains exposed to benzylamine at 2.5 wt. % in tryptic soy broth at pH 9.0 up to one week.
Strains of K. aerogenes (ATCC 13048) and P. aeruginosa (ATCC 9027) were utilized for testing as they are commonly found in many water-based products, including without limitation cosmetics and coatings. These organisms were challenged into the soy broth using the same methods as in the other examples. Time points were selected based on time points from ASTM 2574, which is a method for evaluating antimicrobial efficacy in waterborne emulsion based paints.

[5] = test system: A. brasiliensis; test: Challenge test in tryptic soy broth, log reduction of CFU; format: cell-based; conditions: with 0.25 wt. % sodium benzoate and 0.25 wt. % benzyl alcohol, 14 and 28 days
Description: as §2
Data was reported at 30 minutes, two days, fourteen days and twenty-eight days.
[…] The data was collected at 30 minutes, two days, fourteen days and twenty-eight days.

[6] = test system: A. brasiliensis, C. albicans, E. coli, P. aeruginosa, and S. aureus; test: Challenge test (USP-51 / European Pharmacopeia) in tryptic soy broth, log reduction of CFU; format: cell-based; conditions: tryptic soy broth pH 6.5
From the text: as §1
In conducting the testing, the compound or product to be evaluated is separated out into individual containers, each being challenged with one of the method-specified microorganisms (S. aureus—ATCC 6538 USP51/EP, E. coli—ATCC 8739 EP, P. aeruginosa—ATCC 9027 USP51/EP, C. albicans—ATCC 10231 USP51/EP, and A. brasiliensis—ATCC 16404 USP51/EP) at a concentration of >1×10^5 CFU/g or ml. The initial concentration of each microorganism is determined by inoculating a control substance and using standard dilution and plating techniques. […] The inoculated broth is held at room temperature and is evaluated at specific intervals. USP-51 evaluates at the 14-day and 28-day intervals. EP evaluates results at 2-day, 7-day, 14-day, and 28-day. At each contact time, the inoculated product is chemically neutralized and plated using standard dilution and plating techniques. After a period of incubation (48 hours for bacteria, up to 5 days for yeast and mold) surviving microorganisms are counted, and the log reduction of each microorganism at each interval is reported.
For the European Pharmacopeia, a “pass” test for efficacy is a two-log reduction for bacteria after two days, a three-log reduction in bacteria after […], a two-log reduction in mold and yeast at 14 days and no increase at 28 days. For the USP-51, a two-log reduction in bacteria is required at 14 days and no increase at 28 days. For mold and yeast, USP-51 requires no increase at 14 days and 28 days. “No increase” is defined as a […]. […]
The challenge testing was conducted by a Food and Drug Administration (FDA) certified outside testing lab utilizing standard USP-51 and European Pharmacopeia methodologies as summarized in the Challenge Testing Methodology section above. Antimicrobial efficacy was determined in tryptic soy broth growth media, pH-balanced with sodium hydroxide or hydrochloric acid as required to achieve specific pH ranges. […]
The boosting efficacy of various concentrations of EDTA (0 to 0.5 wt. %, with “0” being a control without the EDTA booster) in tryptic soy broth growth media at pH 6.5 was evaluated against various microbes (A. brasiliensis, C. albicans, E. coli, P. aeruginosa, and S. aureus). […]

[7] = tryptic soy broth pH 8, booster at various concentrations with 0.25 wt. % sodium benzoate and 0.25 wt. % benzyl alcohol

Structure (SMILES): O=C(O)CN(CCN(CC(=O)O)CC(=O)O)CC(=O)O [EDTA, ethylenediaminetetraacetic acid]
- activity against Pseudomonas aeruginosa [1]: particularly good activity
- European Pharmacopeia 14-day criteria [2]: met the 14-day criteria
- European Pharmacopeia two-day criteria [2]: met the two-day criteria
- antimicrobial performance (log reduction of CFU) ([3]; tryptic soy broth pH 6.5, booster 0 to 0.5 wt. % with 0.25 wt. % sodium benzoate and 0.25 wt. % benzyl alcohol, 30 minutes, two, fourteen, twenty-eight days): improved antimicrobial performance
- log reduction as a function of booster concentration ([3]; tryptic soy broth pH 8.0, booster 0 to 0.5 wt. % with 0.25 wt. % sodium benzoate and 0.25 wt. % benzyl alcohol): increased log reduction with increasing concentrations
- antimicrobial performance (log reduction of CFU) [3, 7]: improved antimicrobial performance

Structure (SMILES): OCc1ccccc1 [benzyl alcohol, reference compound]
- antimicrobial effectiveness (log reduction of CFU) compared to control [4]: exactly the same as for benzylamine

Structure (SMILES): O=C([O-])[C@H](O)[C@@H](O)[C@H](O)[C@H](O)CO.[Na+] [sodium gluconate]
- activity against the mold A. brasiliensis ([5]; tryptic soy broth pH 6.5): Good activity
- activity against the mold A. brasiliensis ([5]; tryptic soy broth pH 8): Particularly good activity
- European Pharmacopeia 14-day criteria [2]: met the 14-day criteria
- European Pharmacopeia two-day criteria [2]: met the two-day criteria
- log reduction as a function of booster concentration ([6]; booster 0 to 0.5 wt. % with 0.25 wt. % sodium benzoate and 0.25 wt. % benzyl alcohol, seen at 14 and 28 days): increased log reduction with increased concentration
- booster strength compared with EDTA ([6]; sodium benzoate/benzyl alcohol combination): not as strong a booster as EDTA
- antimicrobial performance (log reduction of CFU) [3, 7]: improved antimicrobial performance

Structure (SMILES): OCCCc1ccccc1 [3-phenyl propanol]
- European Pharmacopeia two-day and 14-day criteria ([2]; 0.35 wt. % booster with 0.25 wt. % sodium benzoate and 0.25 wt. % benzyl alcohol): met the two-day and 14-day criteria

Structure (SMILES): CCCCCCC(O)CO (stereo not drawn) [caprylyl glycol]
- European Pharmacopeia two-day and 14-day criteria ([2]; 0.5 wt. % booster with 0.25 wt. % sodium benzoate and 0.25 wt. % benzyl alcohol): met the two-day and 14-day criteria
- antimicrobial boosting potential at lowest use concentration ([6]; 1 wt. % booster with 0.25 wt. % sodium benzoate and 0.25 wt. % benzyl alcohol): outstanding antimicrobial boosting potential
- two-day log reduction ([6]; caprylyl glycol up to 5 wt. %, regardless of concentration, 0.25 wt. % sodium benzoate and 0.25 wt. % benzyl alcohol, two days): two-log reduction achieved against all microbes tested
- antimicrobial performance (log reduction of CFU) [3, 7]: improved antimicrobial performance
- two-day log reduction ([3]; tryptic soy broth pH 8, caprylyl glycol up to 5 wt. %, regardless of concentration, 0.25 wt. % sodium benzoate and 0.25 wt. % benzyl alcohol, two days): two-log reduction achieved against all microbes tested

Structure (SMILES): NCc1ccccc1 [benzylamine]
- antimicrobial effectiveness (log reduction of CFU) compared to control [4]: antimicrobial effectiveness achieved
